Reference: patent publication US5444063A, “Enantiomerically pure β-D-dioxolane nucleosides with selective anti-Hepatitis B virus activity” (priority 1992, dated 1995)
Values joined by “and” are separate entries in the source; they are usually repeats but may differ in a detail not shown here. Equal entries are not always repeated. Where two headings read alike, the source gives them in different places.

Tests used:
[1] = Toxicity analysis of test compounds in 2.2.15 cells (neutral red dye uptake); assay type: cell-based; conditions: human
Protocol: Toxicity analyses were performed in order to assess whether any observed antiviral effects are due to a general effect on cell viability. The method used was based on the uptake of neutral red dye, a standard and widely used assay for cell viability in a variety of virus-host systems, including HSV (herpes simplex virus) and HIV. Details of the procedure are provided in the toxicity table legends.
The test compounds were used in the form of 40 mM stock solutions in DMSO (frozen on dry ice). Daily aliquots of the test samples were made and frozen at -20° C. so that each individual aliquot would be subjected to a single freeze-thaw cycle. The daily test aliquots were thawed, suspended into culture medium at room temperature and immediately added to the cell cultures° The compounds were tested at 0.0 and 1 μM for antiviral activity. The compounds were tested for toxicity at concentrations up to 300 μM.
Toxicity analyses were performed in 96-well flat bottomed tissue culture plates. Cells for the toxicity analyses were cultured and treated with test compounds with the same schedule as used for the antiviral evaluations. Each compound was tested at 4 concentrations, each in triplicate cultures. Uptake of neutral red dye was used to determine the relative level of toxicity. The absorbance of internalized dye at […] (A510) was used for the quantitative analysis. Values are presented as a percentage of the average A510 values (±standard deviations) in 9 separate cultures of untreated cells maintained on the same 96-well plate as the test compounds.

HBV [2] = conditions: relative to average levels in untreated cells; Korba and Gerin 1992; read-out: Concentration at which a 90% depression of HBV RI is typically observed; cited from earlier work
HBV [3] = experiment: Effect of nucleosides on HBV production in 2.2.15 cells (HBV virion DNA and intracellular HBV DNA); assay type: cell-based, Hepatitis B virus; conditions: for inhibition at 10 µM: Hepatitis B virus
Protocol: The ability of β-D-dioxolane-nucleosides to inhibit HBV can be measured by various experimental techniques. The assay used herein to evaluate the ability of the disclosed compounds to inhibit the replication of HBV is described in detail in Korba and Gerin, Antiviral Res. 19:55-70 (1992). […] The other compounds disclosed herein are evaluated similarly.
The antiviral evaluations were performed on two separate passages of cells, two cultures per passage (4 cultures total). All wells, in all plates, were seeded at the same density and at the same time.
Due to the inherent variations in the levels of both intracellular and extracellular HBV DNA, only depressions greater than 3.0-fold (for HBV virion DNA) or 2.5-fold (for HBV DNA replication intermediates) from the average levels for these HBV DNA forms in untreated cells are generally considered to be statistically significant [P<0.05] (Korba and Gerin, Antiviral Res. 19: 55-70, 1992). The levels of integrated HBV DNA in each cellular DNA preparation (which remain constant on a per cell basis in these experiments) were used to calculate the levels of intracellular HBV DNA forms, thereby eliminating technical variations inherent in the blot hybridization assays.
The test compounds were used in the form of 40 mM stock solutions in DMSO (frozen on dry ice). Daily aliquots of the test samples were made and frozen at -20° C. so that each individual aliquot would be subjected to a single freeze-thaw cycle. […] The compounds were tested for toxicity at concentrations up to 300 μM.

2.2.15 cells = conditions: versus untreated cultures; Korba and Gerin 1992; read-out: Concentration at which a 2-fold reduction in dye uptake is typically observed; cited from earlier work
[4] = Toxicity analysis of test compounds in 2.2.15 cells (neutral red dye uptake); assay type: cell-based; conditions: human; remark: listed apart in the source
[5] = 10 μM, individual culture, listed as DDC

Question: For Nc1ccn([C@H]2CC[C@@H](CO)O2)c(=O)n1 [2',3'-ddC, 2',3'-dideoxycytosine, reference compound], which viability at 30 µM ([1]; 30 μM) is on record?
Answer: 101 ± 1%

Question: What about the viability at 100 µM ([1]; 100 μM) of the same compound?
Answer: 97 ± 2%

Question: What about the viability at 300 µM ([1]; 300 μM) of the same compound?
Answer: 44 ± 1%

Question: And the EC90 (HBV [2])?
Answer: 9 to 12 µM

Question: What about the “HBV virion DNA, day 0” value (HBV [3]; [5]) of the same compound?
Answer: 66 pg/ml of cultured medium and 58 pg/ml of cultured medium and 67 pg/ml of cultured medium and 51 pg/ml of cultured medium

Question: What about the “HBV virion DNA, day 3” value (HBV [3]; [5]) of the same compound?
Answer: 50 pg/ml of cultured medium and 52 pg/ml of cultured medium and 51 pg/ml of cultured medium and 48 pg/ml of cultured medium

Question: What about the “HBV virion DNA, day 6” value (HBV [3]; [5]) of the same compound?
Answer: 20 pg/ml of cultured medium and 13 pg/ml of cultured medium and 19 pg/ml of cultured medium and 17 pg/ml of cultured medium

Question: What about the “HBV virion DNA, day 9” value (HBV [3]; [5]) of the same compound?
Answer: 2 pg/ml of cultured medium and 3 pg/ml of cultured medium

Question: What about the “Intracellular HBV DNA on Day 10, Mono (episomal 3.2kB HBV genomes)” value (HBV [3]; [5]) of the same compound?
Answer: 0.9 pg/μM of cellular DNA and 1.0 pg/μM of cellular DNA and 1.4 pg/μM of cellular DNA and 1.1 pg/μM of cellular DNA

Question: What about the “Intracellular HBV DNA on Day 10, RI (HBV DNA replication intermediates)” value (HBV [3]; [5]) of the same compound?
Answer: 6 pg/μM of cellular DNA and 4 pg/μM of cellular DNA and 5 pg/μM of cellular DNA and 7 pg/μM of cellular DNA

Question: What about the “HBV virion DNA, day 0, mean” value (HBV [3]; 10 μM, mean of 4 cultures) of the same compound?
Answer: 60.50 pg/ml of cultured medium

Question: What about the “HBV virion DNA, day 3, mean” value (HBV [3]; 10 μM, mean of 4 cultures) of the same compound?
Answer: 50.25 pg/ml of cultured medium

Question: And the “HBV virion DNA, day 6, mean” value (HBV [3]; 10 μM, mean of 4 cultures)?
Answer: 17.25 pg/ml of cultured medium

Question: And the “HBV virion DNA, day 9, mean” value (HBV [3]; 10 μM, mean of 4 cultures)?
Answer: 2.25 pg/ml of cultured medium

Question: And the “Intracellular HBV DNA on Day 10, Mono, mean” value (HBV [3]; 10 μM, mean of 4 cultures)?
Answer: 1.10 pg/μM of cellular DNA

Question: And the “Intracellular HBV DNA on Day 10, RI, mean” value (HBV [3]; 10 μM, mean of 4 cultures)?
Answer: 5.50 pg/μM of cellular DNA

Question: And the inhibition at 10 µM (HBV [3]; 0 h, read-out: % inhibition, HBV virion DNA, day 0)?
Answer: 3.97%

Question: And the inhibition at 10 µM (HBV [3]; 72 h, read-out: % inhibition, HBV virion DNA, day 3)?
Answer: 22.4%

Question: And the inhibition at 10 µM (HBV [3]; 144 h, read-out: % inhibition, HBV virion DNA, day 6)?
Answer: 77.5%

Question: What about the inhibition at 10 µM (HBV [3]; 216 h, read-out: % inhibition, HBV virion DNA, day 9) of the same compound?
Answer: 97%

Question: And the inhibition at 10 µM (HBV [3]; 240 h, read-out: % inhibition, intracellular HBV DNA Mono, Day 10)?
Answer: 56.4%

Question: And the inhibition at 10 µM (HBV [3]; 240 h, read-out: % inhibition, intracellular HBV DNA RI, Day 10)?
Answer: 92.5%

Question: And the “Depression of HBV DNA replication” value (HBV [3]; positive treatment control, at the concentration used)?
Answer: significant depressions of HBV DNA replication

Question: What about the CC50 (2.2.15 cells) of the same compound?
Answer: 150 to 190 µM

Question: What about the viability at 1000 µM [4] of the same compound?
Answer: 5 ± 1%
